The values that follow come from paper PMC3925085, “Subditine, a New Monoterpenoid Indole Alkaloid from Bark of Nauclea subdita (Korth.) Steud. Induces Apoptosis in Human Prostate Cancer Cells” (PLoS ONE, 2014).

Type in all cases: cell-based, human
The subject of data set [1] is intracellular ROS in LNCaP cells. In words: ROS assay (DHE dye, Cellomics HCS), LNCaP. The note with it: LNCaP, 12.5, 25, 50 µM, 24 h. The method, then:
The production of intracellular ROS was detected as described previously. The DHE dye reagent is converted to fluorescent ethidium and intercalates into DNA in response intracellular ROS. Briefly, 10 mM DHE stock solution (in methanol) was diluted 500-fold in HBSS without serum or other additives to yield a 20 µM working solution. After exposure to subditine (1), the cells in the 96-well black plate was washed twice with HBSS and then incubated in 100 µL working solution of DHE at 37°C for 30 minutes. Fluorescence of DCF in each cell was captured, extracted and analyzed with ArrayScan II Data Acquisition and Data Viewer version 3.0 (Cellomics).

In data set [2] the test system is Bcl-2 expression in PC-3 cells. In words: Western blotting, Bcl-2 in PC-3. The note with it: 24 h. The method, then: (§1) To determine protein expression, 1×10^6 cells/mL were seeded and treated with subditine (1) or paclitaxel for 24 h. Whole cell extracts were prepared as previously described. Briefly, cells were collected, lysed and resolved on 10% SDS-polyacrylamide gels. After electrophoresis, the proteins were transferred to PVDF membranes (Millipore), blocked with 5% nonfat dry milk in PBS-T (0.05% Tween 20) for 1 hour at room temperature. Membranes were probed with primary rabbit anti-Bcl-2, Bcl-xL or p53 antibodies followed by horseradish peroxidase (HRP)-conjugated secondary anti-rabbit antibody (Cell Signaling Technology Inc., CA, USA). Membranes were stripped and reprobed with mouse anti-β-actin antibody as loading control (Santa Cruz Biotechnology Inc.). Protein-antibody complexes were detected with Amersham ECL prime Western blotting detection reagent (GE Healthcare, USA).

The subject of data set [3] is p53 expression in PC-3 cells. The data set is described as follows: Western blotting, p53 in PC-3. The note with it: PC-3 (p53-null), 24 h. The method, then: as §1
Data set [4] has as its system LNCaP cells. The data set is described as follows: Cellomics multiparameter cytotoxicity assay, LNCaP. The method, then:
(§2) Cytotoxicity 3 kit (Thermo Scientific) was used as described previously. Briefly, 24 hours after subditine (1) treatment, MMP dye and the cell permeability dye were added to live cells and incubated for 30 minutes at 37°C. Cells were fixed, permeabilized, blocked with 1x blocking buffer before probing with primary cytochrome c and secondary DyLight 649 conjugated goat anti-mouse IgG antibodies for 1 hour each. Hoechst 33342 was added into the staining solution. Plates were then analyzed using the ArrayScan high content screening (HCS) system (Cellomics, PA, USA). Data were captured, extracted and analyzed with ArrayScan II Data Acquisition and Data Viewer version 3.0.

In data set [5] the test system is PC-3 cells. The data set is described as follows: Hoechst 33342 / phalloidin staining, PC-3. The note with it: PC-3, 12.5 µM and 25 µM, 24 hours, P<0.05. As to the method:
(§3) Cytoskeletal and nuclear morphological changes of LNCaP and PC-3 cells were examined by phalloidin (detects F-actin) and Hoechst 33342 staining. […] At concentration 12.5 µM and 25 µM, nuclear condensation and fragmentation were detected at 24 hours after subditine (1) treatment (Figure 4).
(§4) Figure 3 Subditine (1) induced cytoskeletal rearrangement at the peripheral. LNCaP and PC-3 cells were treated with subditine (1) at various concentrations for 24 hours. Cells were fixed and stained with Hoechst (blue) and phalloidin (red) dye which stained nucleus and polymerized actin (F-actin), respectively. Bar chart showing average fluorescent intensity of phalloidin (mean ± S.D.; *p<0.05).
(§5) Figure 4 Subditine (1) treatment leads to nuclear DNA fragmentation. LNCaP and PC-3 cells were treated with subditine (1) (12.5 µM and 25 µM) for 24 h. Cells were then fixed and stained with Hoescht 33342 (blue). Red circles indicate DNA shrinkage or fragmentation. Images were captured using Cellomic arrayscan system.

The subject of data set [6] is Bcl-2 expression in LNCaP cells. In words: Western blotting, Bcl-2 in LNCaP. The settings on record: 24 h. As to the method: as §1
On the technique in general: A western blot detects proteins with antibodies after separation by electrophoresis.

Data set [7] deals with glutathione reductase (GR) gene expression in LNCaP cells. In words: Oxidative stress and antioxidant defense qPCR-array, LNCaP. The note with it: 12.5 µM, 18 h, relative to control cells. As to the method:
(§6) LNCaP and PC-3 cells were treated with subditine (1) (12.5 µM) for 18 h. RNA was extracted from PC-3 or LNCaP cells using RNeasy plus mini kit (Qiagen). 1 µg of RNA was reverse transcribed into cDNA using the RT2 first strand kit (SA Biosciences, Qiagen).cDNA was mixed with RT2 Real Time™ SYBR Green/fluorescein PCR master-mix and loaded into each 96 wells of the Human Oxidative Stress and Antioxidant Defense qPCR array according to the manufacturer’s protocol (SA Biosciences, Qiagen). Briefly, a total volume of 25 µl of PCR mixture, which included 12.5 µl of mastermix, 11.5 µl of double distilled water, and 1 µl of cDNA was loaded into each of the 96wells. qPCR were done using StepOne PLUS real-time PCR machine (Applied Biosystems). PCR amplification was conducted at 95°C for 10 min, followed by 40 cycles of 95°C for 15 sec and 60°C for 1 min. The mRNA expression for each gene was normalized using the average expression of five housekeeping genes:
(§7) β-actin (ACTB), β-2-microglobulin (β2M), hypoxanthine phosphoribosyltransferase 1 (HPRT1), ribosomal protein L13a (RPL13A) and glyceraldehyde-3-phosphate dehydrogenase (GAPDH). The ΔΔCt method was used for data analysis. Fold changes were calculated for each gene as the difference in gene expression between subditine (1) or non-treated control using the RT Profiler qPCR-array data analysis software.
In general terms: In qPCR the cycle at which signal appears reflects the starting amount.

In another data set the test system is caspase-9 in LNCaP cells. The data set is described as follows: Caspase-Glo 9 bioluminescent assay, LNCaP. As to the method: A time-dependent study of caspase-3/7, -8, and -9 activities was performed in triplicates using assay kits Caspase-Glo 3/7, 8, and 9 (Promega Corp.,Madison,WI, USA) on white 96-well microplate as described previously. A total of 10,000 cells per well was seeded and treated with […] of subditine (1) for 6, 12, 18, 24, and 30 hours. Then, 100 µL of the caspase-Glo reagent was added, incubated at room temperature for 30 minutes and measured using Tecan Infinite 200 Pro (Tecan, Mannedorf, Swizerland) microplate reader.

Data set [8] deals with LNCaP cells. The data set is described as follows: Hoechst 33342 / phalloidin staining, LNCaP. The note with it: 24 hours. As to the method:
as §3, §4, §5

Data set [9] relates to PC-3 cells. The data set is described as follows: Cellomics multiparameter cytotoxicity assay, PC-3. As to the method:
as §2

In data set [10] the test system is glutathione reductase (GR) gene expression in PC-3 cells. The data set is described as follows: Oxidative stress and antioxidant defense qPCR-array, PC-3. The settings on record: PC-3, 12.5 µM, 18 h, relative to control cells. As to the method: as §6, §7
For data set [11], the system named is Bcl-xL expression in LNCaP cells. The data set is described as follows: Western blotting, Bcl-xL in LNCaP. The settings on record: 24 h. As to the method: as §1
[12] abbreviates: PC-3, 24 h, compared to control.

On to `Cc1ncc2c(=O)n3c(cc2c1C=O)-c1[nH]c2ccccc2c1CC3` [Subditine, subditine], for which, in [1], the “ROS production (DCF/DHE fluorescence level)” value is on record as “significantly increased in a dose-dependent manner”. For the same compound, the Bcl-2 protein expression result in data set [2] (PC-3, 12.5 µM, compared to control) was “no significant change”; in data set [2] (PC-3, 25 and 50 µM), “drastically down-regulated”. In addition, the p53 expression result in data set [3] is on record as “did not restore or enhance”. The “cytochrome c release (cytosolic staining)” value is listed as “increased fluorescent-staining in the cytosol” in the data set with LNCaP cells [4] (24 h, compared to control) and “increased fluorescent-staining in the cytosol” in the data set on PC-3 cells [9] (setting [12]). Further, the membrane permeability result in the data set on LNCaP cells [4] (24 h, compared to control) is recorded as “higher membrane permeability”; in the data set with PC-3 cells [9] (setting [12]), “higher membrane permeability”. The “mitochondrial membrane potential (MMP) fluorescence intensity” value with LNCaP cells [4] (24 hours) was “dose-dependent reduction”; in the data set on PC-3 cells [9] (PC-3, 24 hours), “dose-dependent reduction”. In addition, the “nuclear intensity (apoptotic chromatin changes)” value is recorded as “significantly increased” in the data set on PC-3 cells [5]; “significantly increased” with LNCaP cells [8] (12.5 µM and 25 µM, P<0.05). The Bcl-2 expression entry in data set [6] is listed as “down-regulation”. Besides, the “glutathione reductase (GR) gene expression fold change” value in [7] is more than 100 fold; in [10], more than 20 fold. The caspase-9 activity result with caspase-9 in LNCaP cells (after 12 and 24 hours exposure, 12.25 µM) is “significant increase”. Further, the “time of highest caspase-9 activity” value in the data set with caspase-9 in LNCaP cells (time points 6-30 hours) worked out at 24 h. Also, the “phalloidin (F-actin) intensity” value in the data set with LNCaP cells [8] (various concentrations) is “Dose-dependent increased”. Besides, the Bcl-xL expression result in [11] is given as “down-regulation”.
